From EP4140986A1, “PYRAZINE COMPOUNDS FOR THE CONTROL OF INVERTEBRATE PESTS” (BASF SE, priority 2021, dated 2023)

Legend:
Type in all cases: in vivo
[1] = test system: green peach aphid (Myzus persicae); test: Green Peach Aphid systemic test, artificial diet in 96-well microtiter plates; conditions: 72 h, adult aphids on treated diet, 3 days, read-out: mortality in comparison with untreated controls
Source text: For evaluating control of green peach aphid (Myzus persicae) through systemic means, the test unit consisted of 96-well-microtiter plates containing liquid artificial diet under an artificial mem brane.
The compounds were formulated using a solution containing 75% v/v water and 25% v/v DMSO. Different concentrations of formulated compounds were pipetted into the aphid diet, using a custom built pipetter, at two replications.
After application, 5 - 8 adult aphids were placed on the artificial membrane inside the microtiter plate wells. The aphids were then allowed to suck on the treated aphid diet and incubated at about 23 ± 1°C and about 50 ± 5 % relative humidity for 3 days. Aphid mortality and fecundity was then visually assessed.

[2] = test system: tobacco budworm (Heliothis virescens); test: Tobacco budworm test, insect diet with eggs in 96-well microtiter plates; conditions: 120 h, egg and larval mortality, 5 days, read-out: mortality in comparison with untreated controls
Experimental: For evaluating control of tobacco budworm (Heliothis virescens), the test unit consisted of 96-well-microtiter plates containing an insect diet and 15-25 H. virescens eggs.
The compounds were formulated using a solution containing 75% v/v water and 25% v/v DMSO. Different concentrations of formulated compounds were sprayed onto the insect diet at 10 µl using a custom-built micro atomizer, at two replications.
After application, microtiter plates were incubated at about 28 ± 1°C and about 80 ± 5 % relative humidity for 5 days. Egg and larval mortality was then visually assessed.

[3] = test system: boll weevil (Anthonomus grandis); test: Boll weevil test, insect diet with eggs in 96-well microtiter plates; conditions: 120 h, egg and larval mortality, 5 days, read-out: mortality in comparison with untreated controls
Experimental: For evaluating control of boll weevil (Anthonomus grandis), the test unit consisted of 96-well-microtiter plates containing an insect diet and 5-10 A. grandis eggs.
The compounds were formulated using a solution containing 75% v/v water and 25% v/v DMSO. Different concentrations of formulated compounds were sprayed onto the insect diet at 5 µl, using a custom-built micro atomizer, at two replications.
After application, microtiter plates were incubated at about 25 ± 1°C and about 75 ± 5 % relative humidity for 5 days. Egg and larval mortality was then visually assessed.

[4] = test system: Southern armyworm (Spodoptera eridania), 2nd instar larvae; test: Southern armyworm foliar spray test on Lima bean plants; conditions: 2nd instar larvae on sprayed Lima bean plants, 4 days after treatment
Experimental: The active compounds were formulated by a Tecan liquid handler in 100% cyclohexanone as a 10,000-ppm solution supplied in tubes. The 10,000-ppm solution was serially diluted in 100% cyclohexanone to make interim solutions. These served as stock solutions for which final dilutions were made by the Tecan in 50% acetone:50% water (v/v) into 10 or 20ml glass vials. A non-ionic surfactant (Kinetic®) was included in the solution at a volume of 0.01% (v/v). The vials were then inserted into an automated electrostatic sprayer equipped with an atomizing nozzle for application to plants/insects. Lima bean plants (variety Sieva) were grown 2 plants to a pot and selected for treatment at the 1st true leaf stage. Test solutions were sprayed onto the foliage by an auto-mated electrostatic plant sprayer equipped with an atomizing spray nozzle. The plants were dried in the sprayer fume hood and then removed from the sprayer. Each pot was placed into perforated plastic bags with a zip closure. Ten to 11 armyworm larvae were placed into the bag and the bags zipped closed. Test plants were maintained in a growth room at about 25°C and about 20-40% relative humidity for 4 days, avoiding direct exposure to fluorescent light (14:10 light:dark photoperiod) to prevent trapping of heat inside the bags. Mortality and reduced feeding were assessed 4 days after treatment, compared to untreated control plants.

[5] = test system: yellow fever mosquito (Aedes aegypti); test: whole plant or invertebrate; conditions: 48 h, larval mortality, 2 days, read-out: mortality in comparison with untreated controls
Experimental: For evaluating control of yellow fever mosquito (Aedes aegypti) the test unit consisted of 96-well-microtiter plates containing 200µl of tap water per well and 5-15 freshly hatched A. aegypti larvae.
The active compounds were formulated using a solution containing 75% (v/v) water and 25% (v/v) DMSO. Different concentrations of formulated compounds or mixtures were sprayed onto the insect diet at 2.5µl, using a custom-built micro atomizer, at two replications.
After application, microtiter plates were incubated at 28 ± 1°C, 80 ± 5 % RH for 2 days. Larval mortality was then visually assessed.

Row | SMILES | mortality at 2500 ppm [1] | mortality at 2500 ppm [2] | mortality at 2500 ppm [3] | mortality at 300 ppm ([4]; Spodoptera eridania, foliar, 96 h, read-out: mortality in comparison with untreated controls) | mortality at 2500 ppm [5] | mortality in comparison with untreated controls ([4]; 300 ppm)
1 | CON=C(C)c1nccnc1C(C)NC(=O)c1cc(C(F)(F)F)cc(C(F)(F)F)c1 (stereo not drawn) [Compound I-1, N-[1-[3-[N-methoxy-C-methyl-carbonimidoyl]pyrazin-2-yl]ethyl]-3,5-bis(trifluoromethyl)benzamide] | ≥ 75% | ≥ 75% | ≥ 75% | ≥ 75% | ≥ 75% | 
2 | CON=C(N)c1nccnc1C(C)N(CC1CC1)C(=O)c1cc(C(F)(F)F)cc(C(F)(F)F)c1 (stereo not drawn) [Compound I-4] |  |  |  |  |  | at least 75%
